Measurements: US20070093520A1, “Method of treatment of diarrhea-predominant irritable bowel syndrome in a subject” (priority 2005, published 2007)

Test system: diarrhea-predominant IBS subjects
Format: in vivo, human
Settings: TEAE incidence, 2 mg, Safety Population; PT
Procedure: The study was performed in approximately 150 study centers. Approximately 1600 eligible subjects were to be given cilansetron 2 mg TID. At Visit 1, pre-treatment assessments were conducted. […] Subjects were to return to the study site one month later for Visit 3 (Day 31) for their first interim assessment. […] All subjects who discontinued from the study were to have the same post-study assessments required at Visit 7 performed at their early termination visit. […]
Stool specimens were analyzed at every visit for occult blood. An independent GERB had been established to provide advice on GI AEs during the course of the study.
Adverse events were assessed at Baseline, at each clinic visit, and at the end of the study (Month 12 or the early termination visit). All AEs, which occurred during the study were followed up in accordance with good medical practice until resolved or judged no longer clinically significant, or if a condition was chronic, until fully characterized. Adverse events could occur in the specified follow-up period and, regardless of the interval since the last administration of the study medication, were treated in the same manner as an AE which occurred during the treatment with study medication. Each AE was evaluated for duration, severity, seriousness, and causal relationship to the investigational drug. The action taken and the outcome were also recorded.
Specifically, subjects who were lost to follow-up and had no post-Baseline contact with the site were excluded from the Safety population. The subjects who discontinued from the study due to lost to follow-up were identified based on the information collected on the study termination CRF page.
After the pretreatment assessment at Visit 1 (Days […] to −3), subjects were to return to the study site for a Baseline assessment and start the treatment at Visit 2 (Day 1).
For the by time-interval analyses of disposition, prevalence of AEs, and of markedly abnormal and predefined changes in laboratory values, vital signs, and ECGs, the following interval windows were used:
Adverse events that were already present prior to the first dose of cilansetron study medication but increased in severity afterwards were considered as treatment-emergent.
The 5% cutoff point was based on the incidence within higher level terms.
Subjects were counted at most once for each primary system organ class and preferred term. Serious AEs that resolved prior to receiving study medication or occurred more than 30 days after the last dose of study medication were not included in the incidence tables. A listing of all SAEs is presented; SAEs with onset prior to receiving study medication or more than 30 days after discontinuation of study medication were flagged. The listing presents lower level term and preferred term of the SAE, severity, action taken, outcome, and relationship of the SAE, start and stop date of the SAE, study day of onset of the SAE, age, race, and sex.

SMILES: Cc1nccn1C[C@H]1CCc2c(c3cccc4c3n2CCC4)C1=O [cilansetron, (R)-(−)-4,5,6,8,9,10-hexahydro-10-[(2-methyl-1H-imidazol-1-yl)methyl]-11H-pyrido-[3,2,1-jk]-carbazol-11-one]
- Cervical Disc Lesion: 1 (<1%) n (%)
- Chest Discomfort: 1 (<1%) n (%)
- Chest Pain: 12 (<1%) n (%)
- Chromaturia: 1 (<1%) n (%)
- Chronic Obstructive Airways Disease Exacerbated: 1 (<1%) n (%)
- Clavicle Fracture: 1 (<1%) n (%)
- Contusion: 2 (<1%) n (%)
- Coronary Artery Disease NOS: 2 (<1%) n (%)
- Cough: 26 (2%) n (%)
- Cystocele*: 1 (<1%) n (%)
- Dandruff: 1 (<1%) n (%)
- Depressed Mood: 1 (<1%) n (%)
- Depression: 21 (1%) n (%)
- Depression Aggravated: 6 (<1%) n (%)
- Dermatitis Allergic: 11 (<1%) n (%)
- Dermatitis Contact: 1 (<1%) n (%)
- Dermatitis NOS: 2 (<1%) n (%)
- Diabetes Mellitus NOS: 3 (<1%) n (%)
- Diabetes Mellitus Non-Insulin-Dependent: 1 (<1%) n (%)
- Difficulty in Micturition: 2 (<1%) n (%)
- Discoid Lupus Erythematosus: 1 (<1%) n (%)
- Dissociation: 1 (<1%) n (%)
- Distension NOS: 3 (<1%) n (%)
- Dry Skin: 1 (<1%) n (%)
- Dysmenorrhoea*: 2 (<1%) n (%)
- Dyspnoea Exacerbated: 2 (<1%) n (%)
- Dyspnoea NOS: 5 (<1%) n (%)
- Dysuria: 5 (<1%) n (%)
- Eczema: 3 (<1%) n (%)
- Epidermal Cyst: 1 (<1%) n (%)
- Epistaxis: 2 (<1%) n (%)
- Erectile Dysfunction NOS*: 2 (<1%) n (%)
- Erythema: 1 (<1%) n (%)
- Extrasystoles NOS: 2 (<1%) n (%)
- Face Injury: 2 (<1%) n (%)
- Fall: 2 (<1%) n (%)
- Fatigue: 20 (1%) n (%)
- Fear of Falling: 1 (<1%) n (%)
- Fibula Fracture: 1 (<1%) n (%)
- Fluid Retention: 1 (<1%) n (%)
- Food Intolerance NOS: 1 (<1%) n (%)
- Foot Fracture: 2 (<1%) n (%)
- Forearm Fracture: 1 (<1%) n (%)
- Foreign Body in Eye: 1 (<1%) n (%)
- Genital Discharge: 1 (<1%) n (%)
- Genital Pain NOS: 1 (<1%) n (%)
- Glycosuria: 1 (<1%) n (%)
- Gout: 1 (<1%) n (%)
- Groin Pain: 2 (<1%) n (%)
- Gynaecomastia*: 1 (<1%) n (%)
- Haematuria: 2 (<1%) n (%)
- Hand Fracture: 1 (<1%) n (%)
- Hangover: 1 (<1%) n (%)
- Head Injury: 3 (<1%) n (%)
- Heat Rash: 1 (<1%) n (%)
- Hoarseness: 1 (<1%) n (%)
- Hunger: 1 (<1%) n (%)
- Hypercholesterolaemia: 8 (<1%) n (%)
- Hypercholesterolaemia Aggravated: 1 (<1%) n (%)
- Hyperglycaemia NOS: 4 (<1%) n (%)
- Hyperkalaemia: 1 (<1%) n (%)
- Hyperlipidaemia NOS: 3 (<1%) n (%)
- Hypertriglyceridaemia: 8 (<1%) n (%)
- Hypokalaemia: 3 (<1%) n (%)
- Hyponatraemia Aggravated: 1 (<1%) n (%)
- Hypotrichosis: 4 (<1%) n (%)
- Influenza Like Illness: 8 (<1%) n (%)
- Inguinal Mass: 1 (<1%) n (%)
- Injury NOS: 1 (<1%) n (%)
- Insomnia: 20 (1%) n (%)
- Intervertebral Disc Herniation: 2 (<1%) n (%)
- Joint Dislocation: 1 (<1%) n (%)
- Joint Sprain: 3 (<1%) n (%)
- Joint Stiffness: 2 (<1%) n (%)
- Joint Swelling: 2 (<1%) n (%)
- Laceration: 2 (<1%) n (%)
- Laryngitis NOS: 3 (<1%) n (%)
- Lethargy: 1 (<1%) n (%)
- Leukocyturia: 2 (<1%) n (%)
- Libido Decreased: 1 (<1%) n (%)
- Ligament Injury NOS: 4 (<1%) n (%)
- Limb Injury NOS: 8 (<1%) n (%)
- Localised Osteoarthritis: 2 (<1%) n (%)
- Loin Pain: 1 (<1%) n (%)
- Loss of Libido: 1 (<1%) n (%)
- Major Depressive Disorder NOS: 1 (<1%) n (%)
- Malaise: 2 (<1%) n (%)
- Maxillary Sinusitis: 5 (<1%) n (%)
- Menopausal Symptoms*: 1 (<1%) n (%)
- Menorrhagia*: 1 (<1%) n (%)
- Menses Delayed*: 1 (<1%) n (%)
- Mental Disorder NOS: 1 (<1%) n (%)
- Monoarthritis: 2 (<1%) n (%)
- Mood Alteration NOS: 1 (<1%) n (%)
- Mood Swings: 2 (<1%) n (%)
- Muscle Cramps: 6 (<1%) n (%)
- Muscle Injury NOS: 2 (<1%) n (%)
- Muscle Spasms: 2 (<1%) n (%)
- Muscle Strain: 7 (<1%) n (%)
- Muscle Tightness: 1 (<1%) n (%)
- Muscle Twitching: 1 (<1%) n (%)
- Musculoskeletal Chest Pain: 2 (<1%) n (%)
- Musculoskeletal Discomfort: 1 (<1%) n (%)
- Musculoskeletal Pain: 1 (<1%) n (%)
- Myalgia: 11 (<1%) n (%)
- Myocardial Ischaemia: 4 (<1%) n (%)
- Nail Discolouration: 1 (<1%) n (%)
- Nail Disorder NOS: 1 (<1%) n (%)
- Nasal Congestion: 2 (<1%) n (%)
- Nasal Ulcer: 1 (<1%) n (%)
- Neck Injury NOS: 1 (<1%) n (%)
- Neck Pain: 8 (<1%) n (%)
- Neck Stiffness: 1 (<1%) n (%)
